Legend:
[1] = Binding affinity to soybean agglutinin was evaluated; design: species or system Glycine max
[2] = Binding affinity to Agglutinin was evaluated; design: species or system Arachis hypogaea
[3] = test system: Erythrina corallodendron; assay: Binding affinity to Erythrina corallodendron lectin was evaluated; assay type: functional

| IC50 [1] [µM] | IC50 [2] [µM] | IC50 [3] [µM] | SMILES |
| --- | --- | --- | --- |
| 1290 | 1950 | 1510 | CC(=O)N[C@@H]1[C@H](Oc2cccc3ccccc23)O[C@@H](CO)[C@@H](O)[C@@H]1O |
| 1720 | 2510 | 1150 | CC(=O)N[C@@H]1[C@H](Oc2ccccc2)O[C@@H](CO)[C@@H](O)[C@@H]1O |
